Here are results for one compound from US20230095520A1, “PHARMACEUTICAL COMPOSITION FOR PREVENTING OR TREATING CANCER COMPRISING AZOLE DERIVATIVES OR PHARMACEUTICALLY ACCEPTABLE SALT THEREOF” (Yungjin Pharm. Co., Ltd., priority 2020, published 2023).

The subject of one data set is MV-4-11 cells. Briefly: MV-4-11 cell proliferation inhibition (CCK-8). Conditions: Homo sapiens, MV4-11, MV-4-11 proliferation, 72 hours. The data set is classed as cell-based. Put shortly:
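The FLT3-mutant AML line MV-4-11 was exposed to compound for 72 h. Antiproliferative effect was read with the tetrazolium-based CCK-8 method.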

The test system of another data set is MOLM-13. Briefly: Cancer cell proliferation GI50 (CCK-8). Type of data set: cell-based. Conditions: Homo sapiens, MOLM-13, acute myeloid leukemia (AML), 72 hours. How it is done: (§1) In this example, in order to confirm the proliferation inhibitory effect on various cancer cells, Compound 121 was tested as follows.
(§2) The cells were cultured with a culture medium shown in Table 9 below at 37° C. in a humidified condition in the presence of 5% CO2. Each cell cultured in a 96-well cell culture plate was treated with the compound of the present invention and cultured for 72 hours.

Another data set relates to SK-BR-3. Briefly: Cancer cell proliferation GI50 (CCK-8). Type of data set: cell-based. The following applies: Homo sapiens, SK-BR-3, breast cancer, 72 hours. The protocol:
as §1, §2

A further data set relates to HeLa. As to the kind of experiment: Cancer cell proliferation GI50 (CCK-8). The data set is classed as cell-based. The following applies: Homo sapiens, cervical cancer, 72 hours. The protocol:
as §1, §2

The subject of the next data set is HCC1937. Briefly: Cancer cell proliferation GI50 (CCK-8). Type of data set: cell-based. Conditions: Homo sapiens, HCC1937, breast cancer, 72 hours. How it is done:
as §1, §2

The next data set has as its system MOLM-14. As to the kind of experiment: Cancer cell proliferation GI50 (CCK-8). Type of data set: cell-based. The following applies: Homo sapiens, MOLM-14, acute myeloid leukemia, 72 hours. How it is done: as §1, §2
For a further data set, the system named is KU-812. Briefly: Cancer cell proliferation GI50 (CCK-8). Type of data set: cell-based. The following applies: Homo sapiens, KU812, KU-812, chronic myeloid leukemia, 72 hours. How it is done: as §1, §2
The subject of the next data set is U937. Briefly: Cancer cell proliferation GI50 (CCK-8). Type of data set: cell-based. The following applies: Homo sapiens, U-937, U937, acute myeloid leukemia, 72 hours. The protocol:
as §1, §2

The subject of the next data set is K562. Briefly: Cancer cell proliferation GI50 (CCK-8). Conditions: Homo sapiens, K562, chronic myeloid leukemia (CML), 72 hours. The data set is classed as cell-based. How it is done: as §1, §2
Another data set concerns CCRF-CEM. As to the kind of experiment: Cancer cell proliferation GI50 (CCK-8). The data set is classed as cell-based. The following applies: Homo sapiens, acute lymphocytic leukemia, 72 hours. How it is done: as §1, §2
The next data set concerns NB4. Briefly: Cancer cell proliferation GI50 (CCK-8). Type of data set: cell-based. Conditions: Homo sapiens, NB-4, NB4, acute promyelocytic leukemia, 72 hours. The protocol: as §1, §2
The test system of another data set is SKM-1. Briefly: Cancer cell proliferation GI50 (CCK-8). Type of data set: cell-based. The following applies: Homo sapiens, SKM-1, acute myeloid leukemia, 72 hours. The protocol:
as §1, §2

The test system of a further data set is HCC70. As to the kind of experiment: Cancer cell proliferation GI50 (CCK-8). Type of data set: cell-based. The following applies: Homo sapiens, HCC70, breast cancer, 72 hours. How it is done: as §1, §2
The subject of another data set is MOLM/CYT. As to the kind of experiment: Cancer cell proliferation GI50 (CCK-8). Type of data set: cell-based. Conditions: acute myeloid leukemia, 72 hours. How it is done:
as §1, §2

The next data set concerns HCT116. As to the kind of experiment: Cancer cell proliferation GI50 (CCK-8). Type of data set: cell-based. The following applies: Homo sapiens, HCT-116, HCT116, large intestine cancer, 72 hours. The protocol:
as §1, §2

The subject of the next data set is MCF-7. Briefly: Cancer cell proliferation GI50 (CCK-8). The data set is classed as cell-based. Conditions: Homo sapiens, MCF7, MCF-7, breast cancer, 72 hours. The protocol: as §1, §2
Another data set concerns HepG2. As to the kind of experiment: Cancer cell proliferation GI50 (CCK-8). The data set is classed as cell-based, human. Conditions: Homo sapiens, HepG2, liver cancer, 72 hours. The protocol: (§3) The proliferation effect of SY-1365, which is known to have a proliferation inhibitory effect on various carcinoma cells, and the compound of the present invention on various cancer cells was measured and compared as GI50 (half maximal growth inhibitory concentration, the concentration at which cell proliferation is reduced by half).
(§4) Various carcinoma cells were cultured at 37° C. in a humidified condition in the presence of 5% CO2. Each cell cultured in a 96-well cell culture plate was treated with the compound of the present invention and cultured for 72 hours.
as §1, §2

In another data set the test system is MOLM-13-GFP human cells. As to the kind of experiment: MOLM-13 orthotopic transplantation animal model. The following applies: NSG mouse, tail vein, 1 or 2 mg/kg (2D on/5D off) or 2 mg/kg BIW, 3 to 4 weeks, versus control group. Type of data set: in vivo. How it is done: MOLM-13 cells showing cancer cell inhibitory effect were selected, and Compound 121 was tested as follows using an orthotopic transplantation model.
The animal model used for efficacy evaluation is an NSG (Jackson lab, #005557, USA) mouse lacking the IL-2 receptor gamma gene, in which the immune activity of T cells, B cells, and NK cells is suppressed, and the efficacy was evaluated in an orthotopic transplantation model of MOLM-13-GFP human cells. For the induction method, an orthotopic transplantation model was induced by injecting the cells in an amount of 5×10^5 cells/200 ul/mouse into the tail vein route. Four test groups were G1 excipient control group vehicle (saline), G2 No. 121 1 mg/kg (2D on/5D off), G3 No. 121 2 mg/kg (2D on/ 5D off), and G4 No. 121 2 mg/kg (BIW), and 5 animals per group were set. From the day after cell injection, the tail vein administration of Compound 121 was started at each dose and regimen for 3 to 4 weeks.

In another data set the test system is MDA-MB-468. Briefly: Cancer cell proliferation GI50 (CCK-8). Type of data set: cell-based. The following applies: Homo sapiens, MDA-MB-468, breast cancer, 72 hours. How it is done: as §3, §4, §1, §2
Another data set concerns MDA-MB-231. As to the kind of experiment: Cancer cell proliferation GI50 (CCK-8). The data set is classed as cell-based. The following applies: Homo sapiens, MDA-MB-231, breast cancer, 72 hours. How it is done:
as §3, §4, §1, §2

The test system of the next data set is Huh7. As to the kind of experiment: Cancer cell proliferation GI50 (CCK-8). The data set is classed as cell-based. The following applies: Homo sapiens, Huh7 (Huh-7), liver cancer, 72 hours. How it is done: as §3, §4, §1, §2
A further data set concerns Hep3B. As to the kind of experiment: Cancer cell proliferation GI50 (CCK-8). The data set is classed as cell-based. The following applies: Homo sapiens, liver cancer, 72 hours. The protocol:
as §3, §4, §1, §2

On to `CCc1cnc(NC(=O)[C@@H](C)c2cccc(-c3cnc(NC(=O)/C=C/CN(C)C)c(C#N)c3)c2)s1` [Compound 121, (S,E)-N-(3-cyano-5-(3-(1-((5-ethylthiazol-2-yl)amino)-1-oxopropan-2-yl)phenyl)pyridin-2-yl)-4-(dimethylamino)but-2-enamide], for which, in the data set with MV-4-11 cells, half-maximal inhibition (IC50) required 4.3 nM. Besides, the GI50 with MOLM-13 turned out to be 19 nM; with SK-BR-3, 10.6 nM; with HeLa, 10.8 nM; in the data set on HCC1937, 14.6 nM; with MOLM-14, 2.77 nM; with KU-812, 3.64 nM. Also, the GI50 is 2.43 nM with U937; 18.9 nM in the data set with K562; 15.6 nM in the data set with CCRF-CEM; 12.9 nM in the data set with NB4; 25 nM in the data set with SKM-1; 11.2 nM with HCC70. In addition, the GI50 in the data set on MOLM/CYT was determined as 0.94 nM; in the data set with HCT116, 4 nM; in the data set with MCF-7 it was 15.1 nM; with HepG2, 14 nM; with MDA-MB-468, 4 nM; with MDA-MB-231, 6 nM. The GI50 in the data set on Huh7 was determined as 7 nM; with Hep3B, 9 nM. Besides, in the data set with MOLM-13-GFP human cells (FIG. 11), the survival rate entry is listed as “increase in the survival rate”. For the same compound, the “change in body weight” value in the data set on MOLM-13-GFP human cells (FIG. 12) is reported as “constant amount of body weight gain”.
